US20110045101A1, “FUNGICIDAL SUBSTITUTED AZOLES” (E.I. Du Pont De Nemours and Company, priority 2009, published 2011)
Marks after values point to notes of the source that are not given here.

Tests used:
Type in all cases: in vivo
Settings in all cases: 100 = 100% disease control
Botrytis cinerea = assay: Test C: tomato Botrytis on tomato seedlings, sprayed the day before inoculation, visual disease rating
Method in brief: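 Tomato seedlings were sprayed until run-off with test suspensions in acetone/water (50/50) carrying 250 ppm polyhydric alcohol ester surfactant. Standard dose was 200 ppm, with 40 ppm for marked entries.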

Alternaria solani = assay: Test D: tomato early blight, sprayed the day before inoculation, visual disease rating
Method in brief: (§1)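 200 ppm run-off spray (500 g/ha equivalent); * = 40 ppm. Vehicle: acetone/water 50/50, 250 ppm Trem® 014.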

Septoria nodorum = assay: Test F: wheat glume blotch on wheat seedlings, sprayed the day before inoculation, visual disease rating
Method in brief: as §1

Septoria tritici = assay: Test G: wheat leaf blotch on wheat seedlings, sprayed the day before inoculation, visual disease rating
Method in brief: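 Compounds dissolved in acetone (3% of final volume), then suspended in 50/50 acetone/water with 250 ppm Trem® 014 and sprayed to run-off on seedlings at 200 ppm (≈500 g/ha) or 40 ppm where marked. Inoculation with spores followed next day; visual rating after 48 h saturated at 24° C plus 19 days at 20° C.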

[1] = system: Puccinia recondita f. sp. tritici; assay: Test I: wheat leaf rust on wheat seedlings, sprayed the day before inoculation, visual disease rating
Method in brief: as §1

[2] = system: Erysiphe graminis f. sp. tritici; assay: Test J: wheat powdery mildew on wheat seedlings, sprayed the day before inoculation, visual disease rating
Method in brief: as §1

[3] = 200 ppm, 0 = no control relative to controls
[4] = 40 ppm (marked *), 0 = no control

Compound | Test C disease control rating (Botrytis cinerea; [3]) [%] | Test D disease control rating (Alternaria solani; [3]) [%] | Test F disease control rating (Septoria nodorum; [3]) [%] | Test G disease control rating (Septoria tritici; [3]) [%] | Test I disease control rating [1, 3] [%] | Test J disease control rating [2, 3] [%] | Test C disease control rating (Botrytis cinerea; 200 ppm, 0 = no control) [%] | Test D disease control rating (Alternaria solani; 200 ppm, 0 = no control) [%] | Test F disease control rating (Septoria nodorum; 200 ppm, 0 = no control) [%] | Test G disease control rating (Septoria tritici; 200 ppm, 0 = no control) [%] | Test I disease control rating ([1]; 200 ppm, 0 = no control) [%] | Test J disease control rating ([2]; 200 ppm, 0 = no control) [%] | further results
Fc1cc(-n2cnc(Cl)c2-c2c(F)ccc(F)c2F)ccc1Cl [compound 124] | 98 | 97 | 0 | 90 | 95 | 98 | – | – | – | – | – | – | –
Cc1nc(Cl)c(-c2c(F)cccc2F)n1Cc1ccc(Cl)cc1 [compound 128] | 97 | 96 | 96 | 93 | 97 | 100 | – | – | – | – | – | – | –
Fc1ccc(-n2c(Cl)nc(Cl)c2-c2c(F)cc(F)cc2F)cc1 [compound 147] | – | – | – | – | – | – | 91 | 100 | 82 | 100 | 100 | 99 | –
Cc1ccc(-n2c(C)nc(Cl)c2-c2c(F)ccc(F)c2F)cc1C [compound 238] | – | – | – | – | – | – | 99 | 99 | 0 | 93 | 96 | 100 | –
Cc1ccc(-n2c(Br)nc(Cl)c2-c2c(F)cc(F)cc2F)cc1 [compound 153] | – | – | – | – | – | – | 98 | 100 | 69 | 96 | 99 | 100 | –
COc1cc(F)c(-c2c(Cl)ncn2-c2ccc(Cl)cc2)c(Cl)c1 [compound 132] | 94 | 98 | 0 | 92 | 74 | 97 | – | – | – | – | – | – | –
Cc1nc(C)n(-c2ccc(Cl)cc2)c1-c1c(F)cccc1F [compound 151] | – | – | – | – | – | – | – | – | – | – | – | – | Test C disease control rating (Botrytis cinerea; [4]): 97* %; Test D disease control rating (Alternaria solani; [4]): 100* %; Test F disease control rating (Septoria nodorum; [4]): 69* %; Test G disease control rating (Septoria tritici; [4]): 99* %; Test I disease control rating [1, 4]: 89* %; Test J disease control rating [2, 4]: 96* %
Fc1ccc(F)c(-c2c(Cl)ncn2-c2ccc(Cl)cc2)c1Cl [compound 74] | 98 | 96 | 31 | 98 | 99 | 99 | – | – | – | – | – | – | –
Cc1nc(Cl)c(-c2c(F)cccc2Cl)n1-c1ccc(Cl)c(F)c1 [compound 244] | – | – | – | – | – | – | 100 | 100 | 99 | 96 | 99 | 100 | –
Fc1ccc(-n2cnc(Cl)c2-c2c(F)ccc(F)c2F)cc1 [compound 121] | 99 | 100 | 0 | 85 | 89 | 97 | – | – | – | – | – | – | –
Cc1nn(C)c(-c2c(F)cccc2Cl)c1-c1cccc(F)c1 [compound 62] | 94 | 0 | 0 | 5 | 0 | 81 | – | – | – | – | – | – | –
Cc1nc(Cl)c(-c2c(F)cccc2F)n1-c1ccc(F)cc1 [compound 83] | 97 | 100 | 99 | 98 | 100 | 100 | – | – | – | – | – | – | –
Fc1cccc(F)c1-n1c(Br)nc(Br)c1-c1ccc(Cl)cc1 [compound 162] | – | – | – | – | – | – | – | – | – | – | – | – | Test C disease control rating (Botrytis cinerea; [4]): 88* %; Test D disease control rating (Alternaria solani; [4]): 97* %; Test F disease control rating (Septoria nodorum; [4]): 0* %; Test G disease control rating (Septoria tritici; [4]): 93* %; Test I disease control rating [1, 4]: 23* %; Test J disease control rating [2, 4]: 94* %
Cc1nc(Br)n(-c2c(F)cc(F)cc2F)c1-c1ccc(Cl)cc1 [compound 445] | – | – | – | 95 | – | – | – | – | – | – | – | – | Test C disease control rating (Botrytis cinerea; [4]): 97* %; Test D disease control rating (Alternaria solani; [4]): 100* %; Test F disease control rating (Septoria nodorum; [4]): 92* %; Test I disease control rating [1, 4]: 97* %; Test J disease control rating [2, 4]: 98* %
CCn1nc(Br)c(-c2c(F)cccc2F)c1-c1ccc(Cl)cc1 [compound 165] | – | – | – | – | – | – | 0 | 0 | 0 | 93 | 27 | 93 | –
Cc1ccc(-n2c(C)nc(Cl)c2-c2ccc(F)cc2Cl)cc1 [compound 188] | – | – | – | – | – | – | 98 | 100 | 0 | 97 | 100 | 99 | –
COc1cc(F)c(-c2c(Cl)nc(I)n2-c2ccc(Cl)cc2)c(F)c1 [compound 245] | – | – | – | – | – | – | 100 | 99 | 100 | 97 | 95 | 99 | –
COc1ccc(F)c(-c2c(Cl)nc(Br)n2-c2ccc(I)cc2)c1F [compound 443] | 99 | 99 | 99 | 97 | 89 | 100 | – | – | – | – | – | – | –
Fc1ccc(-n2c(Br)nc(Cl)c2-c2c(F)cccc2F)cc1F [compound 169] | – | – | – | – | – | – | 99 | 100 | 40 | 96 | 88 | 99 | –
COc1cc(F)c(-c2c(Cl)nc(I)n2-c2ccc(Cl)c(F)c2)c(F)c1 [compound 241] | – | – | – | – | – | – | 100 | 100 | 100 | 96 | 96 | 93 | –
Cc1ncn(-c2ccc(Cl)c(F)c2)c1-c1ccccn1 [compound 251] | – | – | – | – | – | – | 99 | 0 | 0 | 81 | 9 | 0 | –
Cc1nc(Cl)n(-c2ccc(Cl)c(F)c2)c1-c1c(F)ccc(F)c1F [compound 389] | 98 | 100 | 0 | 91 | 99 | 98 | – | – | – | – | – | – | –
Cc1nc(Cl)c(-c2ccc(F)cc2Cl)n1-c1ccc(Cl)c(F)c1 [compound 243] | – | – | – | – | – | – | 99 | 100 | 98 | 99 | 100 | 98 | –
CSc1ccc(F)c(-c2c(Cl)nc(C)n2-c2ccc(Cl)cc2)c1F [compound 235] | – | – | – | – | – | – | 99 | 99 | 92 | 99 | 97 | 99 | –
Fc1ccc(-n2cnc(Cl)c2-c2c(F)ccc(F)c2Cl)cc1 [compound 176] | – | – | – | – | – | – | 96 | 91 | 0 | 87 | 99 | 99 | –
Fc1ccc(SCCl)c(F)c1-c1c(Cl)ncn1-c1ccc(Cl)cc1 [compound 232] | – | – | – | – | – | – | 0 | 0 | 0 | 95 | 9 | 0 | –
Cc1nc(Br)n(-c2c(F)cccc2F)c1-c1ccc(Cl)cc1 [compound 216] | – | – | – | – | – | – | – | – | – | – | – | – | Test C disease control rating (Botrytis cinerea; [4]): 99* %; Test D disease control rating (Alternaria solani; [4]): 100* %; Test F disease control rating (Septoria nodorum; [4]): 0* %; Test G disease control rating (Septoria tritici; [4]): 96* %; Test I disease control rating [1, 4]: 93* %; Test J disease control rating [2, 4]: 94* %
COc1ccc(F)c(-c2c(Cl)nc(Br)n2-c2ccc(Cl)cc2)c1F [compound 117] | 96 | 100 | 99 | 97 | 99 | 100 | – | – | – | – | – | – | –
COc1cc(F)c(-c2c(C)nc(Cl)n2-c2ccc(Cl)c(F)c2)c(F)c1 [compound 261] | – | – | – | – | – | – | 99 | 100 | 100 | 95 | 100 | 100 | –
